Measurements: patent publication US11897917B2, “Bioconjugation of polypeptides” (The University of York, priority 2017, dated 2024)
Where two headings read alike, the source gives them in different places.

How the values were obtained:
glyoxyl-LYRAG 16A = test: screening of organocatalysts and aldehyde donors for OPAL reaction
Method: Initially a panel of secondary amines was screened to investigate their ability to catalyse the ligation using a model peptide substrate, glyoxyl-LYRAG 16A and acetaldehyde as an aldehyde donor 32. Second order rate constants for each catalyst (33-38) at 1, 10, and 25 mM loadings were obtained. Next the nature of the α-carbon substituent of the aldehyde donor was investigated by performing reactions using aldehyde donors bearing an aryl substituent (e.g. phenyl acetylaldehyde). Reactions were as shown in Scheme 7 below.
Encouraged by the biological compatibility and site selectivity in these preliminary ligations, attention next turned to optimizing the OPAL by focusing on the choice of organocatalyst and aldehyde donor species. Initially a panel of secondary amines (33-38) were screened to investigate their ability to catalyse the ligation using a model peptide substrate α-oxo-aldehyde-LYRAG 16A and acetaldehyde 32, and second order rate constants were obtained for each catalyst at 1, 10, and 25 mM loadings (Table 4).

[1] = test system: α-phenyl-β-hydroxy aldehyde-LYRAG 50; test: screening of aniline catalysts for oxime ligation of aldol-LYRAG; settings: 100 mM catalyst, 37° C., 18 hours
Method: […] The solution as then charged with an aniline catalyst 56-59 (1M, 50 μl, DMSO). The reaction was vortexed, and allowed to sit at 37° C. for 18 hours without further agitation. Conversion to the product 52 was confirmed by LC-MS analysis.

[2] = test system: α-phenyl-β-hydroxy aldehyde-LYRAG 50; test: screening of aniline catalysts and buffer for retro-aldol decomposition of aldol-LYRAG
Method: The solution was then charged with an aniline catalyst (1M in 50 μl DMSO) selected from compounds 56, 57, 58 and 59 as shown in Scheme 10 below. The reaction was vortexed, and allowed to sit at 37° C. for 18 hours without further agitation. Conversion to the product 16A/16B was confirmed by LC-MS analysis.
[…] The solution was then charged with p-anisidine catalyst 57 (1M, 50 μl, DMSO). The reaction was vortexed, and allowed to sit at 37° C. for 18 hours without further agitation (Scheme 11). Conversion to the product 16A/16B was confirmed by LC-MS analysis.

GFP(Y39ThzK) 2B = GFP(Y39ThzK) 2B (Aequorea victoria, UniProt P42212, F64L/H231L/S65T/V163A/Y39K); settings: for effect on GFP (denaturation / unfolding): initial screen, 100 equivalents
Method: Palladium reagent 9 to 12 (stock 550 mM in DMSO, final concentration 33 mM) was added to 2b (stock 330 μM in buffer D1, final concentration 300 μM) in a 0.5 mL Eppendorf tube. The reaction mixture was vortex mixed for 1 s and incubated in a water bath at 37° C. The reaction was quenched by the addition of DTT (ca. 5 mg) and centrifuged (5000×g, 2 min). The supernatant was decanted and desalted using a PD SpinTrap G25 column (GE Healthcare Life Sciences) into H2O for mass spectrometry analysis or further manipulation.
Initially a reaction was set up using 25 μM of 2B (final concentration), 100 μM palladium catalyst (final concentration) in PBS pH 7.4. The reaction mix was then incubated at 37° C. for 1 hour before addition of 1 μl of 1% 3-mercaptopropanoic acid solution for every 10 μl of reaction solution in order to quench excess catalyst. Quenched solution was then incubated at room temperature for 15 minutes and then desalted using a PD SpinTrap G25 column (GE Healthcare Life Sciences) into H2O for mass spectrometry analysis or further manipulation. Efficiency of decaging was determined by ESI-MS.
This reaction process was repeated using protein concentrations of 2B up to 300 μM and catalyst concentrations.
9-12 were trialled at 37° C. at pH 7.4 in order to maintain biocompatibility over a range of concentrations and time intervals (Table 1).

[3] = pH 7.5, 50 to 16A, PB 200 mM, 37° C., 18 hours
[4] = 100 equiv. [Pd], 6 h, 37° C., pH 7.4
[5] = organocatalyst loading 1 mM, Donor R group = CH3
[6] = organocatalyst loading 10 mM, Donor R group = CH3
[7] = organocatalyst loading 25 mM, Donor R group = CH3
[8] = organocatalyst loading 1 mM, Donor R group = Phenyl-alanine
[9] = organocatalyst loading 10 mM, Donor R group = Phenyl-alanine
[10] = organocatalyst loading 25 mM, Donor R group = Phenyl-alanine

O=CCc1ccccc1 [phenyl acetylaldehyde]
increase in rate over aldehyde donors bearing alkyl substituents (glyoxyl-LYRAG 16A; with L-proline 33 and tetrazole 38): ≥ 240 fold

Nc1cc([N+](=O)[O-])ccc1O [compound 59, 2-Amino-4-nitrophenol]
Conjugation Yield (oxime) ([1]; pH 4.5): precipitates
Conjugation Yield (oxime) ([1]; pH 7.5): 97%
Retro-aldol conversion [2, 3]: 0%

CN(C)c1ccc(P(C(C)(C)C)C(C)(C)C)cc1.CN(C)c1ccc(P(C(C)(C)C)C(C)(C)C)cc1.[Cl-].[Cl-].[Pd+2] [compound 10, dichlorobis[di-tert-butyl(4-dimethylaminophenyl)phosphine]palladium(II)]
GFP fluorescence (GFP(Y39ThzK) 2B; 100 equiv. [Pd], 6 h): No
% conversion (decaging) (GFP(Y39ThzK) 2B; [4]): 0%
% conversion (decaging) (GFP(Y39ThzK) 2B; 100 equiv. [Pd], 24 h): 0%
GFP fluorescence (GFP(Y39ThzK) 2B; 100 equiv. [Pd], 24 h): No

COc1ccc(N)c(C(=O)O)c1 [compound 58, 5-methoxy anthranilic acid]
Conjugation Yield (oxime) ([1]; pH 4.5): 34%
Conjugation Yield (oxime) ([1]; pH 7.5): 97%
Retro-aldol conversion [2, 3]: 8%

O=C(O)[C@@H]1CCN1 [compound 36, L-Azetidine 2 carboxylic acid]
Second Order Rate Constant (glyoxyl-LYRAG 16A; [5]): 0.0004 M⁻¹ s⁻¹
Second Order Rate Constant (glyoxyl-LYRAG 16A; [6]): 0.0024 M⁻¹ s⁻¹
Second Order Rate Constant (glyoxyl-LYRAG 16A; [7]): 0.0052 M⁻¹ s⁻¹

C1CCNCC1 [compound 35, Piperidine]
Second Order Rate Constant (glyoxyl-LYRAG 16A; [5]): >0.0001 M⁻¹ s⁻¹
Second Order Rate Constant (glyoxyl-LYRAG 16A; [6]): 0.0009 M⁻¹ s⁻¹
Second Order Rate Constant (glyoxyl-LYRAG 16A; [7]): 0.0016 M⁻¹ s⁻¹

C1CNCCOC1 [compound 37, Homomorpholine]
Second Order Rate Constant (glyoxyl-LYRAG 16A; [5]): 0.0022 M⁻¹ s⁻¹
Second Order Rate Constant (glyoxyl-LYRAG 16A; [6]): 0.0166 M⁻¹ s⁻¹
Second Order Rate Constant (glyoxyl-LYRAG 16A; [7]): 0.0252 M⁻¹ s⁻¹

C=C[CH2-].C=C[CH2-].[Cl][Pd+].[Cl][Pd+] [compound 11, Allylpalladium(II) chloride dimer]
concentration at which reagent denatures GFP (GFP(Y39ThzK) 2B): greater than 0.5 mM
GFP fluorescence (GFP(Y39ThzK) 2B; 1 equiv. [Pd], 1 h): Yes
GFP fluorescence (GFP(Y39ThzK) 2B; 100 equiv. [Pd], 6 h): No
% conversion (decaging) (GFP(Y39ThzK) 2B; [4]): 30%
GFP fluorescence (GFP(Y39ThzK) 2B; 100 equiv. [Pd], 24 h): No
effect on GFP (denaturation / unfolding) (GFP(Y39ThzK) 2B; 37° C., pH 7.4): immediate denaturation and eventual precipitation

CC(=O)[O-].CC(=O)[O-].[Pd+2] [compound 9, Palladium(II) acetate]
GFP fluorescence (GFP(Y39ThzK) 2B; 100 equiv. [Pd], 6 h): Yes
GFP fluorescence (GFP(Y39ThzK) 2B; 100 equiv. [Pd], 24 h): Yes
effect on GFP (denaturation / unfolding) (GFP(Y39ThzK) 2B; 37° C., pH 7.4): immediate denaturation and eventual precipitation

Pyrrolidine [compound 34]
Second Order Rate Constant (glyoxyl-LYRAG 16A; [5]): 0.0005 M⁻¹ s⁻¹
Second Order Rate Constant (glyoxyl-LYRAG 16A; [6]): 0.0037 M⁻¹ s⁻¹
Second Order Rate Constant (glyoxyl-LYRAG 16A; [7]): 0.0058 M⁻¹ s⁻¹

O=C(/C=C/c1ccccc1)/C=C/c1ccccc1.O=C(/C=C/c1ccccc1)/C=C/c1ccccc1.O=C(/C=C/c1ccccc1)/C=C/c1ccccc1.[Pd].[Pd] [compound 12, Tris(dibenzylideneacetone)dipalladium(0)]
GFP fluorescence (GFP(Y39ThzK) 2B; 1 equiv. [Pd], 1 h): Yes
GFP fluorescence (GFP(Y39ThzK) 2B; 100 equiv. [Pd], 6 h): Yes
% conversion (decaging) (GFP(Y39ThzK) 2B; 100 equiv. [Pd], 24 h): 80%
GFP fluorescence (GFP(Y39ThzK) 2B; 100 equiv. [Pd], 24 h): Yes
% conversion (decaging) (GFP(Y39ThzK) 2B; 100 equiv. [Pd], 40 h): 100%
GFP fluorescence (GFP(Y39ThzK) 2B; 100 equiv. [Pd], 40 h): Yes
% conversion (decaging) (GFP(Y39ThzK) 2B; 100 equiv. [Pd], 68 h): 90%
GFP fluorescence (GFP(Y39ThzK) 2B; 100 equiv. [Pd], 68 h): Yes
% conversion (decaging) (GFP(Y39ThzK) 2B; 200 equiv. [Pd], 6 h): 40%
GFP fluorescence (GFP(Y39ThzK) 2B; 200 equiv. [Pd], 6 h): Yes
Conversion of 2B to 13A/B (GFP(Y39ThzK) 2B; ESI-MS, after 24 h): > 95%
time to completion of decaging (GFP(Y39ThzK) 2B; after condition optimisation): ≤ 24 h
time to complete decaging (GFP(Y39ThzK) 2B; initial conditions): 48 h
effect on GFP (denaturation / unfolding) (GFP(Y39ThzK) 2B; 37° C., pH 7.4): did not lead to GFP unfolding

O=C(O)[C@@H]1CCCN1 [compound 33, L-proline]
Second Order Rate Constant (glyoxyl-LYRAG 16A; [5]): 0.00009 M⁻¹ s⁻¹
Second Order Rate Constant (glyoxyl-LYRAG 16A; [8]): 1.684 M⁻¹ s⁻¹
Second Order Rate Constant (glyoxyl-LYRAG 16A; [6]): 0.0033 M⁻¹ s⁻¹
Second Order Rate Constant (glyoxyl-LYRAG 16A; [9]): 4.366 M⁻¹ s⁻¹
Second Order Rate Constant (glyoxyl-LYRAG 16A; [7]): 0.0100 M⁻¹ s⁻¹
Second Order Rate Constant (glyoxyl-LYRAG 16A; [10]): 7.899 M⁻¹ s⁻¹

Nc1ccccc1 [compound 56, aniline]
Conjugation Yield (oxime) ([1]; pH 4.5): 61%
Conjugation Yield (oxime) ([1]; pH 7.5): 95%
Retro-aldol conversion [2, 3]: 25%

COc1ccc(N)cc1 [compound 57, p-anisidine]
Conjugation Yield (oxime) ([1]; pH 4.5): 81%
Conjugation Yield (oxime) ([1]; pH 7.5): 92%
Retro-aldol conversion ([2]; PB, pH 7.5, conc. 10 (Mm)): 0%
Retro-aldol conversion ([2]; PB, pH 7.5, conc. 50 (Mm)): 13%
Retro-aldol conversion ([2]; PB, pH 7.5, conc. 100 (Mm)): 50%
Retro-aldol conversion [2, 3]: 52%

C1CN[C@H](c2nnn[nH]2)C1 [compound 38, (S)-(−)-5-(2-Pyrrolidinyl)-1H-tetrazole]
Second Order Rate Constant (glyoxyl-LYRAG 16A; [5]): 0.0092 M⁻¹ s⁻¹
Second Order Rate Constant (glyoxyl-LYRAG 16A; [8]): 3.792 M⁻¹ s⁻¹
Second Order Rate Constant (glyoxyl-LYRAG 16A; [6]): 0.0551 M⁻¹ s⁻¹
Second Order Rate Constant (glyoxyl-LYRAG 16A; [9]): 11.820 M⁻¹ s⁻¹
Second Order Rate Constant (glyoxyl-LYRAG 16A; [7]): 0.0997 M⁻¹ s⁻¹
Second Order Rate Constant (glyoxyl-LYRAG 16A; [10]): 23.947 M⁻¹ s⁻¹
